Reference: patent EP0364584A1, “ANTIDOTE FOR ORGANIC PHOSPHORUS COMPOUND POISONING” (priority 1988, dated 1989)
Like-named read-outs stand apart in the source and are kept apart here.

Columns and labels:
[1] = Content of the drugs in blood and brain after intramuscular administration (Askew method); type: in vivo, Ratten; settings: rat, im, Ratten; for concentration at 2 h: 2 St., read-out: Konzentration (µg/g) 2 St. (converted); for concentration at 5 min: read-out: Konzentration (µg/g) 5 min; for concentration at 20 min: read-out: Konzentration (µg/g) 20 min (converted); for concentration at 0.5 h: 30 min, read-out: Konzentration (µg/g) 30 min; for concentration at 1 h: I St., read-out: Konzentration (µg/g) I St.; for concentration at 10 min: IO min, read-out: Konzentration (µg/g) IO min (converted)
Procedure: Mit Hilfe der Methode von Askew (1956) wurde in der Dynamik der Gehalt des erfindungsgemäßen Arzneimittels im Blut und Gehirn der Tiere untersucht. Die Untersuchungen wurden im Vergleich zum bekannten Präparak TMB-4 vorgenommen. Die Geschwindigkeit des Eindringens beider Präparate ins Blut und deren Konzentration wurden bei der-intramuskulären Einführung in Dosen von 20 ..und 50 mg/kg und der Gehirnspiegel - in einer Dosis von 50 mg/kg bestimmt. […]
Es wurde festgestellt, daß die Präparate schnell (nach 5 min) von der Einführungsstelle ins Blut eindringen, dabei wurde unabhängig von der Prüfdosis der Präparate deren Maximalgehalt im Blut 20 min nach der Einführung beobachtet, zwar erhöhte die Vergrößerung der Dosis der Präparate bis 50 mg/kg wesentlich deren Konzentrationsniveau während der ganzen Beobachtungsfrist.
Die im Vergleich zu TMB-4 durchgeführten Untersuchungen haben ergeben, dass während der ersten Stunde der Blutgehalt und das Anwachsen der Konzentrationen beider Präparate gleich waren. […] Die Untersuchungsergebnisse sind in der Tabelle 3 angeführt.
Nach den Ergebnissen der durchgeführten Untersuchungen wurde festgestellt, dass das erfindungsgemässe Arz- neimittel bei der intramuskulären Einführung schnell ins Blut und Gehirn des Tieres eindringt und zum Unterschied von TMB-4 eine längere Zeit im 3lutstrom zirkuliert und von 5 min an bis 4 Stunden Beobachtung im Gehirn in bedeutend grösseren Mengen enthalten ist.

[2] = molecular target: T1, Azetylcholinesterase des menschlichen Bluts (Homo sapiens, UniProt P22303); assay: Reactivation in vitro of erythrocyte cholinesterase inhibited by organophosphorus compounds (potentiometric titration); type: biochemical; settings: reactivator 1.10^-4 M01/1, 25°C, pH 7,5
T1 construct: Cholinesterase des Grundgerüstes der Erythrozyten des menschlichen Bluts; from tissue; host or cells: human erythrocyte stroma (ghosts)

[3] = blood, Blut, Dosis 20 mg/kg intramuskulär
[4] = blood, Blut, Dosis 50 mg/kg intramuskulär
[5] = brain, Gehirn, Dosis 50 mg/kg intramuskulär

T1 sequence (P22303 other isoform, or with tags, fused parts or gaps): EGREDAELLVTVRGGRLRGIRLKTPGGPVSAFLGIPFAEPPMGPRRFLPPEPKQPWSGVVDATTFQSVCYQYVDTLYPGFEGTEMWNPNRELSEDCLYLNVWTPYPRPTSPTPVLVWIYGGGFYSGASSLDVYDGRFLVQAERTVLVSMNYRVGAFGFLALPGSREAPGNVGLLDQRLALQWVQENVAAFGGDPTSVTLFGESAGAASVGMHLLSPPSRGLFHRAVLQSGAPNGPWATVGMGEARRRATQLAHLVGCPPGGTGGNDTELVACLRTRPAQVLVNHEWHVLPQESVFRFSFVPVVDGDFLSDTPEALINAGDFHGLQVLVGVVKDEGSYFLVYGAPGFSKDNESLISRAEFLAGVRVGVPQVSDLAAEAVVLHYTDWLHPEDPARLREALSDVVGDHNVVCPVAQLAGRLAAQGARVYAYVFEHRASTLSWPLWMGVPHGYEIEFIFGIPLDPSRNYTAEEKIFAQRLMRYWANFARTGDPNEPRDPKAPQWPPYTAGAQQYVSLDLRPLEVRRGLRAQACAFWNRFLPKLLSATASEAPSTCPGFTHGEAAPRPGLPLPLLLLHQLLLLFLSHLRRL

With ON=Cc1cc[n+](CCC[n+]2ccc(C=NO)cc2)cc1 [TMB-4, Trimethylen-1,3-bis-(4-oxyiminomethylpyridinium)bromid, reference compound] the concentration at 2 h [1, 3] was 0.41 µg/g, the concentration at 5 min [1, 3] was 3.6 µg/g and the concentration at 20 min [1, 3] was 4.85 µg/g. It also gave a concentration at 0.5 h [1, 3] of 4.35 µg/g, a concentration at 1 h [1, 3] of 2.75 µg/g and a concentration at 10 min [1, 3] of 4.42 µg/g. The concentration at 2 h [1, 4] was 2.42 µg/g, the concentration at 3 h ([1]; blood, Blut, Dosis 50 mg/kg intramuskulär, 3 St., read-out: Konzentration (µg/g) 3 St.) was 1.95 µg/g and the concentration at 5 min [1, 4] was 16.6 µg/g. The concentration at 20 min [1, 4] was 18.4 µg/g, the concentration at 0.5 h [1, 4] was 15.1 µg/g and the concentration at 1 h [1, 4] was 11.5 µg/g. It also gave a concentration at 10 min [1, 4] of 21.1 µg/g, a concentration at 2 h [1, 5] of 0.34 µg/g and a concentration at 5 min [1, 5] of 0.86 µg/g. For the same molecule, the concentration at 20 min [1, 5] was 2.32 µg/g, the concentration at 0.5 h [1, 5] was 2.28 µg/g and the concentration at 1 h [1, 5] was 1.5 µg/g. For the same molecule, the concentration at 10 min [1, 5] was 0.98 µg/g, the activity at 100 µM ([2]; 0.5 h, pH 7, inhibited with O,O-Dimethyl-(2,2,2-trichlor-1-oxyäthyl) phosphonat, 0,5 h, read-out: Aktivität der Azetylcholinesterase in % (Reaktivationszeit in Stunden) 0,5) was 40% and the activity at 100 µM ([2]; 0.5 h, pH 7, inhibited with O,O-Dimethyl-S-(1,2-dikarbäthoxyäthyl)-dithiophosphat, 0,5 h, read-out: Aktivität der Azetylcholinesterase in % (Reaktivationszeit in Stunden) 0,5) was 27.4%. For the same molecule, the activity at 100 µM ([2]; 1 h, pH 7, inhibited with O,O-Dimethyl-(2,2,2-trichlor-1-oxyäthyl) phosphonat, 1 h, read-out: Aktivität der Azetylcholinesterase in % (Reaktivationszeit in Stunden) 1) was 51%, the activity at 100 µM ([2]; 1 h, pH 7, inhibited with O,O-Dimethyl-S-(1,2-dikarbäthoxyäthyl)-dithiophosphat, 1 h, read-out: Aktivität der Azetylcholinesterase in % (Reaktivationszeit in Stunden) 1) was 43% and the activity at 100 µM ([2]; 2 h, pH 7, inhibited with O,O-Dimethyl-(2,2,2-trichlor-1-oxyäthyl) phosphonat, 2 h, read-out: Aktivität der Azetylcholinesterase in % (Reaktivationszeit in Stunden) 2) was 64.2%. For the same molecule, the activity at 100 µM ([2]; 2 h, pH 7, inhibited with O,O-Dimethyl-S-(1,2-dikarbäthoxyäthyl)-dithiophosphat, 2 h, read-out: Aktivität der Azetylcholinesterase in % (Reaktivationszeit in Stunden) 2) was 52.9%.
